In patent publication US4902699A, “Oxime of 1, 2, 5, 6-tetrahydropyridine compounds their use as medicaments and the compositions containing them” (Roussel Uclaf, priority 1987, dated 1990):
Structures can show the parent of a compound that is named as a salt. Where two headings read alike, the source gives them in different places.

Tests used:
Diarrhoeic activity = experiment: Diarrhoeic activity; design: species or system mice; conditions: mouse, in vivo; oral route; dose which causes diarrhoea in 50% of the animals; read-out: DE50 (the source's name)
Procedure: The test is carried out on male mice (CD1 Charles Rivers) weighing […], after fasting for 6 hours. The product dissolved at 5% in methocel is administered by oral route by means of an oesophage probe.
Control animals receive only the excipient.
After treatment, the animals are placed separately in cages of which the base is covered with blotting paper, and they are put under observation for 30, 60, 120 and 180 minutes.
The sheets of absorbent paper are changed after each observation.
The consistency of the feces is evaluated according to the method of Randall and Baruth (Arch. Int. Pharmacodyn. 220, 94, 1976) according to the following scale of values.
1: feces slightly soft, with or without a damp halo
2: feces slightly soft, with a well defined circle of humidity.
3: feces soft with a large circle of humidity.
4: feces without consistency with a very large circle of humidity.
For each product, the dose is noted which causes diarrhoea in 50% of the animals according to the method of Miller and Tainter (Proc. Soc. Exp. Biol. Med., 57, 261, 1944).

[1] = system: ileum isolated from guinea-pig; experiment: Test of ileum isolated from guinea-pig, agonist (contracting) activity; conditions: Cavia porcellus; negative logarithm of the dose which produces 50% of the maximum effect; read-out: pD2 (converted)
Procedure: Pieces of ileum are removed from guinea-pigs killed by decapitation. The isolated ileum is placed in 10 cm^3 of Tyrode solution at 37° C. and aerated with a mixture of oxygen (95%) and carbon dioxide gas (5%). The contractions due to the products are registered by means of a detector connected to a polygraph. The products to be tested are added at concentrations between 1.10^-3 M and 1.10^-8 M/l.
The products presenting a contracting effect are tested vis-a-vis atropine and hexamethonium in order to establish if the activity is of "muscarine" or "nicotine" type.
The agonist activity is expressed in pD2 (negative logarithm of the dose which produces 50% of the maximum effect).

Solubility = type: physicochemical; conditions: for Solubility in water: H2O
[2] = system: male mice (CD1 Charles RAivers); experiment: Variation of the body temperature (duration of action); type: in vivo
Procedure: (§1) The test is carried out on male mice (CD1 Charles RAivers) weighing 25-30 g, having fasted for 6 hours.
The temperature of the body is noted by means of a thermocouple inserted about 1.5 cm in the rectum and connected to an electric temperature recorder. […]
The duration of action of the products is determined, using the doses able to reduce the temperature by 1° to 1.5° C.

Acute toxicity, oral = experiment: Acute toxicity, oral; design: species or system mice; conditions: mouse, in vivo, mortality during 7 days
Procedure: The test was carried out on male mice (CD1 Charles Rivers), of 22 to 24 g, having fasted for 16 hours. […] The mortality is noted during the 7 days following the treatment.

[3] = system: male mice (CD1 Charles RAivers); experiment: Hypothermic activity; type: in vivo; conditions: Mus musculus, read-out: Effective dose (-1° C.)
Procedure: as §1
The temperature of the body is noted by means of a thermocouple inserted about 1.5 cm in the rectum and connected to an electric temperature recorder.
The products are administered by oral or sub-cutaneous route and the temperatures are noted at the instant 0 and at 30 minutes, 1 hour, 2 hours and 2 and a half hours after treatment.
The degree of hypothermia is evaluated as the difference between the treated animals and the controls, and the dose necessary to reduce the body temperature by 1° C. is noted.

[4] = system: central cholinergic system; conditions: cited from earlier work
[5] = system: patients having a memory defect; conditions: injected by intravenous route; cited from earlier work

Compound	ED50 (Diarrhoeic activity)	EC50 [1]	Solubility in 2N HCl (Solubility)	Solubility in 2N NaOH (Solubility)	Solubility in water (Solubility)	LD50 at 168 h (Acute toxicity, oral)	ED (-1 C) ([3]; O.R. (oral route))	ED (-1 C) ([3]; SC.R (sub-cutaneous route))	further results
CON=CC1=CCCN(OC(C)=O)C1 [Example 3, Hydrochloride of the methyl ether of 1-acetoxy-1,2,5,6-tetrahydropyridin-3-carboxaldehyde oxime]	0.5 mg/kg	12.6 µM	soluble	insoluble	insoluble	100 mg/kg	0.22 mg/kg	0.2 mg/kg	Variations of the body temperature ([2]; os, 0.25 mg/kg, 30 min): -1.2 °C; Variations of the body temperature ([2]; os, 0.25 mg/kg, 60 min): -0.7 °C; Variations of the body temperature ([2]; os, 0.25 mg/kg, 120 min): +0.1 °C; Variations of the body temperature ([2]; os, 0.25 mg/kg, 180 min): +0.1 °C; Variations of the body temperature ([2]; sc, 0.25 mg/kg, 30 min): -1.2 °C; Variations of the body temperature ([2]; sc, 0.25 mg/kg, 60 min): -0.8 °C; Variations of the body temperature ([2]; sc, 0.25 mg/kg, 120 min): +0.1 °C; Variations of the body temperature ([2]; sc, 0.25 mg/kg, 180 min): +0.1 °C
C#CCON=CC1=CCCN(O)C1 [Example 4, Hydrochloride of the propargyl ether of 1-hydroxy-1,2,5,6-tetrahydropyridin-3-carboxaldehyde oxime]	0.9 mg/kg	5.75 µM	Soluble	Soluble	Soluble	80 mg/kg	0.48 mg/kg	0.49 mg/kg	Variations of the body temperature ([2]; os, 0.75 mg/kg, 30 min): -1.6 °C; Variations of the body temperature ([2]; os, 0.75 mg/kg, 60 min): -1.0 °C; Variations of the body temperature ([2]; os, 0.75 mg/kg, 180 min): -0.1 °C; Variations of the body temperature ([2]; sc, 0.75 mg/kg, 30 min): -1.4 °C; Variations of the body temperature ([2]; sc, 0.75 mg/kg, 60 min): -1.1 °C; Variations of the body temperature ([2]; sc, 0.75 mg/kg, 120 min): -0.1 °C
COC(=O)C1=CCCN(C)C1 [arecoline]	35 mg/kg	0.331 µM							duration of action ([4]; in vivo): short duration of action; activity by oral route ([4]; oral route): very weak activity; effect on patients having a memory defect [5]: positive effect
